Source: patent US12527779B2, “Prostaglandin E2 (PGE2) EP4 receptor antagonists” (Domain Therapeutics, priority 2019, dated 2026)

How the values were obtained:
[1] = molecular target: T1, human EP4 (hEP4) receptor (Homo sapiens, UniProt P35408); assay: In vitro human EP4 functional antagonist activity using BRET biosensors (cAMP EPAC biosensor, TCS2510 stimulation); assay type: cell-based; settings: antagonist activity vs EC60 TCS2510, hEP4 in HEK-293 T cells
T1 construct: expressed in transfected cells; host or cells: HEK-293 T cells, transient co-transfection with polyethylenimine
T1 sequence (P35408 whole entry): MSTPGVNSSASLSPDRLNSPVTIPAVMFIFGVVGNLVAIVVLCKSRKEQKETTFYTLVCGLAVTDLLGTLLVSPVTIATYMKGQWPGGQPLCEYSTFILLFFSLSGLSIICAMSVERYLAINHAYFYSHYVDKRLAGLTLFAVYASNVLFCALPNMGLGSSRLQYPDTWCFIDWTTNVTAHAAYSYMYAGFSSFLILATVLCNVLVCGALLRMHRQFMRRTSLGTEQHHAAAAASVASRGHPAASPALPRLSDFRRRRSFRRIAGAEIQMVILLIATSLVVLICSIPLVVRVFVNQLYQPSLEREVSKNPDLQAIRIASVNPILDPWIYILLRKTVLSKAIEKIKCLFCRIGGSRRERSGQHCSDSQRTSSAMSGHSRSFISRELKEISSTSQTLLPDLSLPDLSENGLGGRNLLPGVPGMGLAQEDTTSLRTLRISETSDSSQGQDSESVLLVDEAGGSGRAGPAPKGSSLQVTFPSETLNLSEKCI
Outline: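 Antagonism measured as inhibition of EC60 TCS2510-induced cAMP BRET signal (EPAC luciferase/GFP sensor) in transiently hEP4-expressing HEK-293T cells, following 5 min compound preincubation and 10 min luminescence recording. Plates equilibrated 1 h at 22 °C in HEPES buffer; 10 concentrations over 4.5 logs, duplicate in two independent experiments, sigmoidal variable-slope IC50.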

CT26 tumor cells = assay: In vivo anti-tumoral activity in a CT26 tumor model; design: species or system BALB/c mice; settings: Example 25 150 mg/kg po BID combined with anti-PD-1 antibody 200 μg/mouse iv Q3D; 12 mice per group
Protocol: CT26 tumor cells were maintained in vitro as a monolayer culture in RPM11640 medium supplemented with 10% fetal bovine serum at 37° C. in an atmosphere of 5% CO2 in air. The cells were routinely subcultured twice weekly by trypsin-EDTA treatment. The cells in an exponential growth phase were harvested and counted for tumor inoculation.
Female BALB/c mice were inoculated subcutaneously in the right rear flank region with CT26 tumor cells (5×10^5) in 0.1 ml of PBS for tumor development on day 0. Tumor volumes were measured thrice per week in two dimensions using a caliper, and the volume was expressed in mm^3 using the formula: “V=(L×W×W)/2”, where V is tumor volume, L is tumor length (the longest tumor dimension) and W is tumor width (the longest tumor dimension perpendicular to L). […]
Animals were checked daily for morbidity and mortality. During routine monitoring, the animals were checked for any effects on tumor growth and treatments on behavior such as mobility, food and water consumption, body weight gain/loss (body weights were measured thrice per week), eye/hair matting and any other abnormalities. […] The body weights and tumor volumes were monitored by using StudyDirector™ software (version 3.1.399.19).

Pan02 tumor cells = assay: In vivo anti-tumoral activity of Example 25 in a Pan02 tumor model; design: species or system C57BL/6 mice
Protocol: Pan02 tumor cells were maintained in vitro as a monolayer culture in RPM11640 medium supplemented with 10% fetal bovine serum at 37° C. in an atmosphere of 5% CO2 in air. The cells were routinely subcultured twice weekly by trypsin-EDTA treatment. The cells in an exponential growth phase were harvested and counted for tumor inoculation.
Female C57BL/6 mice were inoculated subcutaneously in the right rear flank region with Pan02 tumor cells (3×10^6) in 0.1 ml of PBS for tumor development on day 0. Tumor volumes were measured thrice per week in two dimensions using a caliper, and the volume was expressed in mm^3 using the formula: “V=(L×W×W)/2”, where V is tumor volume, L is tumor length (the longest tumor dimension) and W is tumor width (the longest tumor dimension perpendicular to L). When the mean tumor size reached approximately 100 mm^3, mice were randomly allocated into groups (10 mice per group) and treated with either a control antibody (rIgG2a(2A3), 200 μg/mouse, iv, Q3D) or an anti-PD-1 antibody (RPM1-14, 200 μg/mouse, iv, Q3D), with or without the compound of Example 25 (150 mg/kg, po, 0.5% MC, BID, BID time interval: 8 h) for at least 3 weeks.
Animals were checked daily for morbidity and mortality. During routine monitoring, the animals were checked for any effects on tumor growth and treatments on behavior such as mobility, food and water consumption, body weight gain/loss (body weights were measured thrice per week), eye/hair matting and any other abnormalities. Dosing as well as tumor and body weight measurements were conducted in a Laminar Flow Cabinet. The body weights and tumor volumes were monitored by using StudyDirector™ software (version 3.1.399.19).

CN(CCOc1ccccc1)C1(C(=O)NC2(c3ccc(C(=O)O)cc3)CC2)CCOCC1.Cl [Example 25, 4-[1-[[4-[Methyl(2-phenoxyethyl)amino]tetrahydropyran-4-carbonyl]amino]cyclopropyl]benzoic acid, hydrochloride]
IC50 [1]: < 0.1 µM
cases of complete tumor regression (CT26 tumor cells): 5 cases
complete tumor regression, % of the test animals (CT26 tumor cells): 42%
Tumor Growth Inhibition TGI (%) (Pan02 tumor cells; Example 25 150 mg/kg po BID + anti-PD1 antibody 0.2 mg/animal Q3D, day 0): 0.1%
Tumor Growth Inhibition TGI (%) (Pan02 tumor cells; Example 25 150 mg/kg po BID + anti-PD1 antibody 0.2 mg/animal Q3D, day 3): 10.9%
Tumor Growth Inhibition TGI (%) (Pan02 tumor cells; Example 25 150 mg/kg po BID + anti-PD1 antibody 0.2 mg/animal Q3D, day 7): 16.9%
Tumor Growth Inhibition TGI (%) (Pan02 tumor cells; Example 25 150 mg/kg po BID + anti-PD1 antibody 0.2 mg/animal Q3D, day 10): 26.1%
Tumor Growth Inhibition TGI (%) (Pan02 tumor cells; Example 25 150 mg/kg po BID + anti-PD1 antibody 0.2 mg/animal Q3D, day 14): 51.1%
Tumor Growth Inhibition TGI (%) (Pan02 tumor cells; Example 25 150 mg/kg po BID + anti-PD1 antibody 0.2 mg/animal Q3D, day 17): 62.8%
Tumor Growth Inhibition TGI (%) (Pan02 tumor cells; Example 25 150 mg/kg po BID + anti-PD1 antibody 0.2 mg/animal Q3D, day 21, hydrochloride, 150 mg/kg): 71.0%
Tumor Growth Inhibition TGI (%) (Pan02 tumor cells; Example 25 150 mg/kg po BID + rIgG2a, day 0): 0.0%
Tumor Growth Inhibition TGI (%) (Pan02 tumor cells; Example 25 150 mg/kg po BID + rIgG2a, day 3): 15.6%
Tumor Growth Inhibition TGI (%) (Pan02 tumor cells; Example 25 150 mg/kg po BID + rIgG2a, day 7): 22.5%
Tumor Growth Inhibition TGI (%) (Pan02 tumor cells; Example 25 150 mg/kg po BID + rIgG2a, day 10): 25.1%
Tumor Growth Inhibition TGI (%) (Pan02 tumor cells; Example 25 150 mg/kg po BID + rIgG2a, day 14): 51.5%
Tumor Growth Inhibition TGI (%) (Pan02 tumor cells; Example 25 150 mg/kg po BID + rIgG2a, day 17): 61.8%
Tumor Growth Inhibition TGI (%) (Pan02 tumor cells; Example 25 150 mg/kg po BID + rIgG2a, day 21, hydrochloride, 150 mg/kg): 68.5%
